# Where two headings read alike, the source gives them in different places.
# Tests used:
# [1] = Pharmacokinetics after single IV bolus dose in monkeys
# Procedure: (§1) At the designated time points, blood was collected into tubes containing potassium EDTA and stored on ice until processed by centrifugation. The resultant plasma was stored in a freezer maintained at approximately −80° C.
# (§2) Plasma samples were prepared by protein precipitation. An aliquot of 30 to 50 μL sample was mixed with acetonitrile containing an internal standard. The mixture was vortexed and then centrifuged. The resultant supernatant was directly analyzed by a sensitive and specific analytical procedure. Analytes were separated by liquid chromatography (LC), and detected by tandem mass spectrometry (MS/MS). The lower limit of quantitation (LLOQ) was 1.0 to 5.0 ng/mL.
# [2] = Pharmacokinetics after single IV bolus dose in dogs; details: for CL: Dog, single dose IV bolus, mean noncompartmental; for volume of distribution at steady state, in words: dogs, single IV dose; for Vd / half-life: male, beagle, dog, iv
# Procedure: as §1, §2
# [3] = Pharmacokinetics in preclinical species, summary across species; type: in vivo, mice, rats, dogs, monkeys; details: single IV dose; for clearance (CL), in words: all preclinical species; for half-life: both sexes, CD-1 (mouse), Sprague-Dawley (rat), beagle (dog), mouse, rat, dog, cynomolgus monkey, plasma, range over preclinical species, read-out: terminal half-lives; for volume of distribution at steady state, in words: mice, rats and monkeys
# Procedure: Plasma samples were prepared by protein precipitation. […] The mixture was vortexed and then centrifuged.
# Compound 1 and Compound 2 volume of distribution at steady (Vu) was low in mice, rats and monkeys, but moderate-to-high in dogs. The terminal half-lives (Ti2) of Compound 1 and Compound 2 ranged from 3.5 to 41 hours, and 6.5 to 34 hours, respectively.
# [4] = Pharmacokinetics after single IV bolus dose in mice
# Procedure: as §1, §2
# [5] = Pharmacokinetics after single IV bolus dose in rats
# Procedure: as §1, §2
# [6] = test system: squamous cell carcinoma of the head and neck; details: recurrent or metastatic squamous cell carcinoma of the head and neck; cited from earlier work
# bladder cancer = details: cited from earlier work
# [7] = Monkey, single dose IV bolus, mean noncompartmental
# [8] = male, cynomolgus monkey, plasma, iv
# [9] = female, CD-1, mouse, plasma, iv
# [10] = Rat, single dose IV bolus, mean noncompartmental
# [11] = male, Sprague-Dawley, rat, plasma, iv
# [12] = female, CD-1, mouse, in vivo, iv
compound,measurement,setting,value
C[C@H](Nc1cc(Cl)nc2c1cnn2[C@@H]1O[C@H](COP(=O)(O)CP(=O)(O)O)[C@@H](O)[C@H]1O)c1ccccc1F [Compound 1],CL,[1]; [7],0.0417 mL/min/kg
same,Vd,[1]; [8],0.097 L/kg
same,half-life,[1]; [8],41 h
same,CL,[2],0.833 mL/min/kg
same,"volume of distribution at steady state, in words",[2],moderate-to-high
same,Vd,[2]; plasma,1.3 L/kg
same,half-life,[2]; plasma,21 h
same,"clearance (CL), in words",[3],low
same,half-life,[3],3.5 to 41 h
same,"volume of distribution at steady state, in words",[3],low
same,CL,"[4]; Mouse, single dose IV bolus, mean noncompartmental",0.417 mL/min/kg
same,Vd,[4]; [9],0.12 L/kg
same,half-life,[4]; [9],3.5 h
same,CL,[5]; [10],0.333 mL/min/kg
same,T1/2,[5]; [10],5.3 h
same,Vd,[5]; [11],0.12 L/kg
C[C@H](Nc1cc(Cl)nc2c1cnn2[C@@H]1O[C@H](COP(=O)(O)CP(=O)(O)O)[C@@H](O)[C@H]1O)c1ccc(F)cc1 [Compound 2],CL,[1]; [7],0.0283 mL/min/kg
same,T1/2,[1]; [7],34 h
same,Vd,"[1]; male, cynomolgus monkey, in vivo, iv",0.078 L/kg
same,CL,[2],0.567 mL/min/kg
same,"volume of distribution at steady state, in words",[2],moderate-to-high
same,Vd,[2]; in vivo,0.63 L/kg
same,half-life,[2]; in vivo,15 h
same,"clearance (CL), in words",[3],low
same,half-life,[3],6.5 to 34 h
same,"volume of distribution at steady state, in words",[3],low
same,Vd,[4]; [12],0.11 L/kg
same,clearance,[4]; [12],0.25 mL/min/kg
same,half-life,[4]; [12],6.5 h
same,T1/2,[5]; [10],9.6 h
same,Vd,"[5]; male, Sprague-Dawley, rat, in vivo, iv",0.12 L/kg
same,clearance,[5]; [11],0.155 mL/min/kg
nivolumab: PD-1 blocking antibody,estimated 1-year survival rate versus standard chemotherapy,[6],more than two-fold higher
atezolizumab: the first approved anti-PD-L1 therapy,response rate,bladder cancer; all patients,15%
same,response rate,bladder cancer; patients with more PD-L1-positive immune cells,27%

# From patent publication US12433836B2, “Parenterally administered immune enhancing drugs” (ARCUS BIOSCIENCES, INC., priority 2018, dated 2025)
